Patent US20090325877A1, “Combination Product of Receptor Tyrosine Kinase Inhibitor and Fatty Acid Synthase Inhibitor for Treating Cancer” (Wyeth, priority 2008, published 2009)
In brackets after ≈: the same amount, converted by molar mass. Entries after “also recorded” stand apart in the source; their conditions may differ. Like-named read-outs stand apart in the source and are kept apart here.

How the values were obtained:
AKT = AKT phosphorylation and expression by Western blotting in A2780 and SKOV3 cells; type: cell-based
Procedure: Cells plated in culture media containing 5% fetal calf serum at a density of 2.6×10^5 (SKOV3) or 6×10^5 (A2780) in 60 mm dishes (Corning, Corning, N.Y.) were treated with FASN inhibitor C75, with small-molecule ErbB RTK inhibitors (RTKIs), with the MEK1/2 antagonist U0126 or with the PI3K inhibitor LY294002 for the indicated times and at various concentrations. In some experiments cells were stimulated for 5 or 10 min with 100 ng/ml EGF (Sigma) before lysis in RIPA buffer (Grunt et al., Biochem Biophys Res Commun 329:1253-1259, 2005). Proteins (20 μg/lane) were subjected to SDS-PAGE, blotted onto PVDF membranes and immunostained (see Grunt, ibid) using the following antibodies: 2 μg/ml goat anti-pEGFR(Tyr1173) (sc-12351), 1 μg/ml rabbit anti-ErbB2 (C-18) (sc-284), 1 μg/ml rabbit anti-pErbB2(Tyr1248) (sc-12352-R) (all from Santa Cruz Biotechnology Inc., Santa Cruz, Calif.), rabbit anti-EGFR 1:1,000 (2232), rabbit anti-AKT 1:1,000 (9272), rabbit anti-pAKT(Ser473) 1:1,000 (9271), rabbit anti-pAKT(Thr308) 1:1,000 (9275), rabbit anti-pERK1/2(Thr202/Tyr204) 1:1,000 (9101) (all from Cell Signaling Technology), rabbit anti-ERK1/2 1:3,000 (06-182, Upstate Biotechnology Inc., Lake Placid, N.Y.), 0.5 μg/ml mouse monoclonal anti-FASN (610963, BD Biosciences, San Jose, Calif.), or 0.67 μg/ml goat anti-human actin (1-19, sc-1616, Santa Cruz Biotechnology). […]

[1] = test system: A2780 ovarian cancer cells; test: Formazan dye (MTT) in-vitro cell growth assay, A2780; type: cell-based; conditions: for IC50: Homo sapiens, 72 h
Procedure: Effect of FAS and ErbB inhibition on A2780 ovarian cancer cells (OCC). […] Cells were grown for three days in the presence of vehicle (0.1% DMSO) or synthetic inhibitor before cell number was estimated. Data in the charts represent means +/−SD of triplicate measurements.
Cells were plated at 0.5−5×10^3/well in 96-well plates. After adhesion, media ±drugs alone or in combination were added. Cell numbers were estimated after 3-5 days by using a colorimetric formazan dye assay (Biomedica, Vienna, Austria). Results (mean±SD, n=3) were expressed in percent of untreated (solvent) control. Statistical analysis of data from drug combination treatment experiments was performed using one-factorial ANOVA followed by Scheffe-test.
Yellow MTT (3-(4,5-Dimethylthiazol-2-yl)-2,5-diphenyltetrazolium bromide, a tetrazole) is reduced to purple formazan in the mitochondria of living cells (see Mosmann, T., J. Immunol. Methods, 65(1-2): 55-63, 1983).

EGFR mRNA = EGFR mRNA by qRT-PCR in SKBR3 breast cancer cells; type: cell-based; conditions: Homo sapiens, SK-BR-3, read-out: IC50, down-regulation of EGFR mRNA
Excerpt: (§1) RNA was extracted from the cells using TRI-REAGENT™ (Molecular Research Center, Cincinnati, Ohio) and subjected to reverse transcription—polymerase chain reaction (“RT-PCR”) using the TITAN ONE TUBE RT-PCR KIT™ system (Hoffmann-La Roche). Primers were: EGFR: 5′-[…]-3′ (SEQ ID NO:1) (forward, E1S) 5′-[…]-3′ (SEQ ID NO:2) (reverse, E1A); ErbB-2: 5′-[…]-3′ (SEQ ID NO:3) (forward, E2S2), 5′-[…]-3′ (SEQ ID NO:4) (reverse, E2A2); GAPDH: 5′-[…]-3′ (SEQ ID NO:5) (forward, GAPDH3S), 5′-[…]-3′ (SEQ ID NO:6) (reverse, GAPDH3A). Conditions for reverse transcription and amplification of the EGFR coding sequence were: 50° C., 30 minutes; 94° C., 2 minutes; 10 cycles (94° C., 30 seconds; 64.9° C., 30 seconds; 68° C., 90 seconds); 30 cycles (94° C., 30 seconds; 64.9° C., 30 seconds; 68° C., 90 seconds +5 seconds autoextension) and 68° C., 7 minutes. […]
(§2) Quantitative RT-PCR (“qRT-PCR”) was performed in the ABI PRISM 7000™ Sequence Detector (Applied Biosystems, Foster City, Calif.) using human EGFR, ErbB2, and FASN TaqMan® Gene Expression Assay systems (Applied Biosystems; Assay IDs: Hs00193306_m1, Hs00170433_m1, Hs00188012_m1) according to the manufacturer's instructions. β-actin and GAPDH (VIC™ and FAM labeled pre-developed TaqMan® Assay reagents, Applied Biosystems) were used as endogenous controls. EGFR, ErbB2, and FASN mRNA expression were calculated as described previously (Grunt, ibid).

ErbB2 mRNA [2] = test: ErbB2 mRNA by qRT-PCR in SKBR3 breast cancer cells; type: cell-based, human
Excerpt: as §1, §2

ErbB2 mRNA [3] = test: ErbB2 mRNA by RT-PCR and qRT-PCR in A2780 cells; type: cell-based, human
Excerpt: RNA was extracted from the cells using TRI-REAGENT™ (Molecular Research Center, Cincinnati, Ohio) and subjected to reverse transcription—polymerase chain reaction (“RT-PCR”) using the TITAN ONE TUBE RT-PCR KIT™ system (Hoffmann-La Roche). Primers were: EGFR: 5′-[…]-3′ (SEQ ID NO:1) (forward, E1S) 5′-[…]-3′ (SEQ ID NO:2) (reverse, E1A); ErbB-2: 5′-[…]-3′ (SEQ ID NO:3) (forward, E2S2), 5′-[…]-3′ (SEQ ID NO:4) (reverse, E2A2); GAPDH: 5′-[…]-3′ (SEQ ID NO:5) (forward, GAPDH3S), 5′-[…]-3′ (SEQ ID NO:6) (reverse, GAPDH3A). Conditions for reverse transcription and amplification of the EGFR coding sequence were: 50° C., 30 minutes; 94° C., 2 minutes; 10 cycles (94° C., 30 seconds; 64.9° C., 30 seconds; 68° C., 90 seconds); 30 cycles (94° C., 30 seconds; 64.9° C., 30 seconds; 68° C., 90 seconds +5 seconds autoextension) and 68° C., 7 minutes. Conditions for ErbB2 and GAPDH were: 50° C., 30 minutes; 94° C., 2 minutes; 10 cycles (94° C., 30 seconds; 51° C., 30 seconds; 68° C., 45 seconds); 25 cycles (94° C., 30 seconds; 51° C., 30 seconds; 68° C., 45 seconds +5 seconds autoextension) and 68° C., 7 minutes. DNA products had the following sizes: EGFR: 1452 bp, ErbB2: 900 bp, GAPDH: 488 bp. Fragments were electrophoresed and stained with ethidium bromide.
as §2

ErbB2 protein = test: Total and phosphorylated ErbB2 protein by Western blot in A2780 cells; type: cell-based
Procedure: Cells plated in culture media containing 5% fetal calf serum at a density of 2.6×10^5 (SKOV3) or 6×10^5 (A2780) in 60 mm dishes (Corning, Corning, N.Y.) were treated with FASN inhibitor C75, with small-molecule ErbB RTK inhibitors (RTKIs), with the MEK1/2 antagonist U0126 or with the PI3K inhibitor LY294002 for the indicated times and at various concentrations. In some experiments cells were stimulated for 5 or 10 min with 100 ng/ml EGF (Sigma) before lysis in RIPA buffer (Grunt et al., Biochem Biophys Res Commun 329:1253-1259, 2005). Proteins (20 μg/lane) were subjected to SDS-PAGE, blotted onto PVDF membranes and immunostained (see Grunt, ibid) using the following antibodies: 2 μg/ml goat anti-pEGFR(Tyr1173) (sc-12351), 1 μg/ml rabbit anti-ErbB2 (C-18) (sc-284), 1 μg/ml rabbit anti-pErbB2(Tyr1248) (sc-12352-R) (all from Santa Cruz Biotechnology Inc., Santa Cruz, Calif.), rabbit anti-EGFR 1:1,000 (2232), rabbit anti-AKT 1:1,000 (9272), rabbit anti-pAKT(Ser473) 1:1,000 (9271), rabbit anti-pAKT(Thr308) 1:1,000 (9275), rabbit anti-pERK1/2(Thr202/Tyr204) 1:1,000 (9101) (all from Cell Signaling Technology), rabbit anti-ERK1/2 1:3,000 (06-182, Upstate Biotechnology Inc., Lake Placid, N.Y.), 0.5 μg/ml mouse monoclonal anti-FASN (610963, BD Biosciences, San Jose, Calif.), or 0.67 μg/ml goat anti-human actin (1-19, sc-1616, Santa Cruz Biotechnology). Secondary antibodies were peroxidase-tagged donkey-anti-rabbit IgG (V795A, Promega, Madison, Wis.) or donkey-anti-goat IgG (sc-2020, Santa Cruz Biotechnology) at 1:15,000, respectively, or chicken anti-mouse IgG (sc-2954, Santa Cruz Biotechnology) at 1:10,000. Detection was performed by enhanced chemiluminescence.

C=C1C(=O)OC(CCCCCCCC)C1C(=O)O (stereo not shown) [C75, tetrahydro-3-methylene-2-oxo-5-n-octyl-4-furancarboxylic acid]
phosphorylation of AKT (Ser473, Thr308), effect in words (AKT): dose-dependently inhibits
total AKT protein level, effect in words (AKT; C75 at high concentrations): slightly affects
in vitro growth inhibition (in words) ([1]; A2780, MTT assay, single drug): growth inhibitory activity
IC50 ([1]; A2780 OCC, each individual inhibitor, 50% reduction of cell growth, three days, n = 3-5, read-out: IC50 (μM) Mean +/− SD): 21.9 µM
IC50 ([1]; A2780 ovarian cancer cells, grown three days with inhibitor, read-out: IC50, growth of OCC (MTT assay)): 22 µM
IC50 (EGFR mRNA): 7.5 µg/mL (≈ 29.5 µM)
ErbB2 mRNA, effect in words (ErbB2 mRNA [2]): dose-dependent decline; also recorded: dose-dependent down-regulation
ErbB2 mRNA, effect in words (ErbB2 mRNA [3]): not affected; also recorded: failed to diminish
phosphorylated ErbB2 (pErbB2), effect in words (ErbB2 protein): downregulates; also recorded: deprivation
total ErbB2 protein, effect in words (ErbB2 protein): downregulates; also recorded: deprivation
